From publication PMC11962395 (Molecular Cancer Therapeutics, 2024)

Columns and labels:
AR = AR degradation in CRBN-KO LNCaP and 22Rv1 cells with dox-inducible CRBN; assay type: cell-based
[1] = tested on: nearly 4,000 detectable proteins in VCaP cells; assay: Proteomic screen in VCaP cells; assay type: cell-based, human; conditions: 10 nmol/L, 8 hours, filter >2× degradation, P <0.05
[2] = target: G1–S phase transition 1 protein (Homo sapiens, UniProt P15170); assay: Neomorphic substrate degradation in Ramos cells: GSPT1; assay type: cell-based; conditions: increasing concentrations, 24 hours
G1–S phase transition 1 protein, sequence (Q16531 whole entry): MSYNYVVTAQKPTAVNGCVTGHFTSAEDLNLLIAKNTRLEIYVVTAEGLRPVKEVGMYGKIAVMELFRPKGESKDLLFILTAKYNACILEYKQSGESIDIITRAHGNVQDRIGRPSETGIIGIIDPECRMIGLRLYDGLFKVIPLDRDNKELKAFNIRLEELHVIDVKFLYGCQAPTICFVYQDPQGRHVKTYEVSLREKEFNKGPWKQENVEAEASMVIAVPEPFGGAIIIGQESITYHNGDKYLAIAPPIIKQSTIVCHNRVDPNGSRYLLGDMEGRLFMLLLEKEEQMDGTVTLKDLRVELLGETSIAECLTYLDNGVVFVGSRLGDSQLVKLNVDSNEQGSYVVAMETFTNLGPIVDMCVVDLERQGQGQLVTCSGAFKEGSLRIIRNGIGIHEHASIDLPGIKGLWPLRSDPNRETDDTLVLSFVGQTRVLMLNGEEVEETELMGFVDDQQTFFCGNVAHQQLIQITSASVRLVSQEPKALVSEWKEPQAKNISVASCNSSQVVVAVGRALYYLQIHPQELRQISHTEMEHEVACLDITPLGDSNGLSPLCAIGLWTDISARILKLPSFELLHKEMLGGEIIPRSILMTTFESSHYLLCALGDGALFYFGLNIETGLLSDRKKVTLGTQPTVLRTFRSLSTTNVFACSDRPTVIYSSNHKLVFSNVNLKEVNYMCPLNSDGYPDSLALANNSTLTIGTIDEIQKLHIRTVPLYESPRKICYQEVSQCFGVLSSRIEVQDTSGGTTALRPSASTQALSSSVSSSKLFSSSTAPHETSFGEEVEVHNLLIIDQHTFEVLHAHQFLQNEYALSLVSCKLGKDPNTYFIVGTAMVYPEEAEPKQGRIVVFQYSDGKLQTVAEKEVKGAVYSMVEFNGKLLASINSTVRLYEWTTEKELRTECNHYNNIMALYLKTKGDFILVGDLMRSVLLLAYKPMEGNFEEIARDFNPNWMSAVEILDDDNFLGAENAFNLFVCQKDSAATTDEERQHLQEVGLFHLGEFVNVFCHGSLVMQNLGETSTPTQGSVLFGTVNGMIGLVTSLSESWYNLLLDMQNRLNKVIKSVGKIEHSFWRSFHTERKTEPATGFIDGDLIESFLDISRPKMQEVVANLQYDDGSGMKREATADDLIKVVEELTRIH
G1–S phase transition 1 protein, sequence (Q96SW2 whole entry, further chain): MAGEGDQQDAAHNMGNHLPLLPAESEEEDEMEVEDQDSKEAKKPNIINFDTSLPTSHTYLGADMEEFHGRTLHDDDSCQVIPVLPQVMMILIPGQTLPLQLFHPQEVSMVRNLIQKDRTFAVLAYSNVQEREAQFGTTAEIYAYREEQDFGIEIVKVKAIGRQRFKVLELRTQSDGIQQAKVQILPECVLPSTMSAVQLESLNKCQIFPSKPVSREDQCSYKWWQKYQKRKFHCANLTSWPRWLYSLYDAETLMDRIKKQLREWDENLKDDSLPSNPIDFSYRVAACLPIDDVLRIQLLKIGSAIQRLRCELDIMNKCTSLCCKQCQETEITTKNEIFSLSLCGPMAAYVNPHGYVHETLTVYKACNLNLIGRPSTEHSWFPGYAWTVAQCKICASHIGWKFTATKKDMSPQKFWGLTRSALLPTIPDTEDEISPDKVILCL
G1–S phase transition 1 protein, sequence (P15170 whole entry): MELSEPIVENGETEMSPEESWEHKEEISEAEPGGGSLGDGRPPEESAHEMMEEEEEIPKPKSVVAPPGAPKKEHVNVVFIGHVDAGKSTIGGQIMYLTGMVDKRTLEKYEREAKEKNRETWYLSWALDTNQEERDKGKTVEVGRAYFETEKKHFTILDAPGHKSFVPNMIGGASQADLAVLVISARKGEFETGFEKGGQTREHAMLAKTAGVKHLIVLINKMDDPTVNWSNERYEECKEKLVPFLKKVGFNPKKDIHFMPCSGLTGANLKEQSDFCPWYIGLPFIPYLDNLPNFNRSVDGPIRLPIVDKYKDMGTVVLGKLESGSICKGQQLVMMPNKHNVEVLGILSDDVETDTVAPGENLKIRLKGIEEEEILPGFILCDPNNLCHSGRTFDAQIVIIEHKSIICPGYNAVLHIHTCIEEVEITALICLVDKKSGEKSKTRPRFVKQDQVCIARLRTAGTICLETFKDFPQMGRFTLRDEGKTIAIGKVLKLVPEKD

IKZF3 (Aiolos) = IKZF3 (Aiolos) (Homo sapiens, UniProt Q9UKT9); assay: Neomorphic substrate degradation in Ramos cells: IKZF3; assay type: cell-based; conditions: increasing concentrations, 24 hours
IKZF3 (Aiolos), sequence (Q96SW2 whole entry partner): as the sequence (Q96SW2 whole entry, further chain) above
IKZF3 (Aiolos), sequence (Q16531 whole entry partner): as the sequence (Q16531 whole entry) above
IKZF3 (Aiolos), sequence (Q9UKT9 whole entry): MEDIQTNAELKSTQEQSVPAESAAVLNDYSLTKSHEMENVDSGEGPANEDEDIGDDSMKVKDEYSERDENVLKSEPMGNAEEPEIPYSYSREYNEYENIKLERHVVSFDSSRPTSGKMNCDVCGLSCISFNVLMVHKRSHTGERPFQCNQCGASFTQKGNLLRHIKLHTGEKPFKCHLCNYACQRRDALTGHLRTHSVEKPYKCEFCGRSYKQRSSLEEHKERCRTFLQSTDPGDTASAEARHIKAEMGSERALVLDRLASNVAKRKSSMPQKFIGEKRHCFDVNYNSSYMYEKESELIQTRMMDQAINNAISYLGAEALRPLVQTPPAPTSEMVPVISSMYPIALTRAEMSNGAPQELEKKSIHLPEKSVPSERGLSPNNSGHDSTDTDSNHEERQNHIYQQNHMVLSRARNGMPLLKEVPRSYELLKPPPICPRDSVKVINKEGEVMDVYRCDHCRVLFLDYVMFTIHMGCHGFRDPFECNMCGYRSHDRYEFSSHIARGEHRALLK

IKZF1 (Ikaros) = IKZF1 (Ikaros) (Homo sapiens, UniProt Q13422); assay: Neomorphic substrate degradation in Ramos cells: IKZF1; assay type: cell-based; conditions: increasing concentrations, 24 hours
IKZF1 (Ikaros), sequence (Q96SW2 whole entry partner): as the sequence (Q96SW2 whole entry, further chain) above
IKZF1 (Ikaros), sequence (Q16531 whole entry partner): as the sequence (Q16531 whole entry) above
IKZF1 (Ikaros), sequence (Q13422 whole entry): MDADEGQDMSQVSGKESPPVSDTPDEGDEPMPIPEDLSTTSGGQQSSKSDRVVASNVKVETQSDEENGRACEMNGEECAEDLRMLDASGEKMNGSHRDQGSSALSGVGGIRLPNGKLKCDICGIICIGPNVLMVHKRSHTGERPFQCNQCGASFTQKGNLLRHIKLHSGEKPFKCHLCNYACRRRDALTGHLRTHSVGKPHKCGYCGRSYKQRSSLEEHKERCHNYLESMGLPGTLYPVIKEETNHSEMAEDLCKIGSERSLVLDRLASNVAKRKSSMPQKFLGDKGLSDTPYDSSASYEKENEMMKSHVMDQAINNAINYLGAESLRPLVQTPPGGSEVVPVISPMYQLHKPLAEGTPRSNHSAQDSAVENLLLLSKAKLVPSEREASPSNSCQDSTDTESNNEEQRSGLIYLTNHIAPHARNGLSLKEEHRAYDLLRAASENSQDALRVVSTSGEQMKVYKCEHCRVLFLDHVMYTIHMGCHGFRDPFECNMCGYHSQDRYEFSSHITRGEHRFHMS

CK1α = CK1α (Homo sapiens, UniProt P48729+Q96SW2); assay: Neomorphic substrate degradation in Ramos cells: CK1α; assay type: cell-based
CK1α, sequence (P48729 whole entry): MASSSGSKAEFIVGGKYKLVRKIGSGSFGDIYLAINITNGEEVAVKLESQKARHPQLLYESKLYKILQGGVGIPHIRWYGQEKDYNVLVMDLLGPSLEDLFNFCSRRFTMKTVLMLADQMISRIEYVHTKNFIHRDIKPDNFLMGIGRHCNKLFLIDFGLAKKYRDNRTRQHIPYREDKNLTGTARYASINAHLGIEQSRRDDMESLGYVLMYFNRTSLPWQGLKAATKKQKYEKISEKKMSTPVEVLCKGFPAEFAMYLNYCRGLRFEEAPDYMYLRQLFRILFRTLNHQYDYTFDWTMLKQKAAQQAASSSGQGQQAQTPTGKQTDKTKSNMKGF
CK1α, sequence (Q96SW2 whole entry): as the sequence (Q96SW2 whole entry, further chain) above
CK1α, sequence (Q16531 whole entry partner): as the sequence (Q16531 whole entry) above

SALL4 = SALL4 (Homo sapiens, UniProt Q96SW2+Q9UJQ4); assay: SALL4 degradation in SK-N-DZ cells; assay type: cell-based
SALL4, sequence (Q9UJQ4 whole entry): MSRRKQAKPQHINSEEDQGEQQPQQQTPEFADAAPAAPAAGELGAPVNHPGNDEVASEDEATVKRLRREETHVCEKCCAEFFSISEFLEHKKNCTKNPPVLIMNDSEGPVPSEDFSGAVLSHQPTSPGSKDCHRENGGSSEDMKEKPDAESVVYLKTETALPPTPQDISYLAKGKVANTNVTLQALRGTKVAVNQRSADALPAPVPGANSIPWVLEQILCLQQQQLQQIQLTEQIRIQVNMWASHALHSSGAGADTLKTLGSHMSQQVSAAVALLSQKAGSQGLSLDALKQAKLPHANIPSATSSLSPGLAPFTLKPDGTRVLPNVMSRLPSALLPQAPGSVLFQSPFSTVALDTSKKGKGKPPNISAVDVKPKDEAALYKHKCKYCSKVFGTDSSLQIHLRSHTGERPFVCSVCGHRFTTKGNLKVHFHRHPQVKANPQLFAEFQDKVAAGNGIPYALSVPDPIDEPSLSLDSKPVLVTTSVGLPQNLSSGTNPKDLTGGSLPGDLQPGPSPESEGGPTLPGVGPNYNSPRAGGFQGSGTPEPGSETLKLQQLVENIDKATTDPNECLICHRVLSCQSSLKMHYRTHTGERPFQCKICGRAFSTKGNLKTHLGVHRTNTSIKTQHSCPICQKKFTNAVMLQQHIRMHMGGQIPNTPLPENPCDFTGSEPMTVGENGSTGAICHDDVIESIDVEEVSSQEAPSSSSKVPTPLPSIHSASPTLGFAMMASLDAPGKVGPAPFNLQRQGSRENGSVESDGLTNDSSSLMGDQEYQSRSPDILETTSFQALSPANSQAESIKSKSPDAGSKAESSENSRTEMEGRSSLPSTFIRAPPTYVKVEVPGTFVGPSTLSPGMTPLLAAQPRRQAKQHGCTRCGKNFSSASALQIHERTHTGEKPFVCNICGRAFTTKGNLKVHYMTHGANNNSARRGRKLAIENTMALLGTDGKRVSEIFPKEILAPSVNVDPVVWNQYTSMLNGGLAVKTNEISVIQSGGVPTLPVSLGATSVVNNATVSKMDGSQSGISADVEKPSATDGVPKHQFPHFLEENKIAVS
SALL4, sequence (Q96SW2 whole entry): as the sequence (Q96SW2 whole entry, further chain) above
SALL4, sequence (Q16531 whole entry partner): as the sequence (Q16531 whole entry) above

[3] = tested on: PSA synthesis in LNCaP/AR cells; assay: PSA suppression assay in LNCaP/AR cells; assay type: cell-based; conditions: 48 h, read-out: IC50 (inhibition of PSA synthesis)
VCaP cells = assay: VCaP cell proliferation assay; assay type: cell-based, human; conditions: for antiproliferative effect with increasing R1881: 300 nmol/L bavdegalutamide or 1,000 nmol/L enzalutamide, co-treatment with increasing R1881, 5 days
VCaP xenografts = assay: Tumor growth inhibition, castrated VCaP xenograft model; assay type: in vivo, mice
PSA [4] = assay: Plasma PSA levels, patient-derived xenograft TM00298; assay type: in vivo, mice; conditions: 10 mg/kg oral every day for 20 days, 16 hours after last dose
rat prostate tissue = assay: Rat prostate involution study; assay type: in vivo, rats; conditions: 15 and 45 mg/kg oral every day for 10 days
[5] = Animal body weights during treatment in prostate cancer mouse models; assay type: in vivo, mice
[6] = tested on: abiraterone-resistant tumors; conditions: 10 mg/kg oral every day for 19 days, phase III
TMPRSS–ERG = assay: ERG protein levels in tumors, enzalutamide-resistant VCaP model
[7] = tested on: enzalutamide-resistant VCaP xenograft tumors; assay: Tumor growth inhibition, enzalutamide-resistant VCaP xenograft model; assay type: in vivo, mice; conditions: 20 mg/kg oral every day for 28 days
[8] = tested on: human VCaP tumor xenografts; conditions: intact VCaP xenograft model; cited from earlier work
[9] = tested on: patient-derived xenograft TM00298; conditions: TM00298 model; cited from earlier work
PSA [10] = conditions: TM00298 model; cited from earlier work
[11] = vs in vitro functional efficacy of 1 to 30 nmol/L
[12] = enzalutamide-resistant VCaP model

SMILES: N#Cc1ccc(O[C@H]2CC[C@H](NC(=O)c3ccc(N4CCC(CN5CCN(c6cc7c(cc6F)C(=O)N(C6CCC(=O)NC6=O)C7=O)CC5)CC4)nn3)CC2)cc1Cl (some centres unmarked) [Bavdegalutamide, N-[(1r,4r)-4-(3-chloro-4-cyanophenoxy)cyclohexyl]-6-[4-({4-[2-(2,6-dioxopiperidin-3-yl)-6-fluoro-1,3-dioxo-2,3-dihydro-1H-isoindol-5-yl]piperazin-1-yl}methyl)piperidin-1-yl]pyridazine-3-carboxamide]
- cereblon dependence of AR degradation (AR): cereblon dependent
- proteins degraded in proteomic screen [1]: degradation of only AR
- G1–S phase transition 1 protein degradation [2]: did not lead to degradation
- IKZF3 (Aiolos) degradation (IKZF3 (Aiolos)): did not lead to degradation
- IKZF1 (Ikaros) degradation (IKZF1 (Ikaros)): did not lead to degradation
- CK1α degradation (CK1α; Ramos cells, 300 to 1,000 nmol/L, 24 hours): only modest degradation
- window between AR and CK1α modulation (CK1α; [11]): ≥ 10 ×
- SALL4 degradation (SALL4; SK-N-DZ cells, 1,000 nmol/L, 24 hours): modestly degraded
- window between AR and SALL4 modulation (SALL4; [11]): ≥ 10 ×
- IC50 [3]: 10 nM
- antiproliferative effect with increasing R1881 (VCaP cells; charcoal-stripped serum): antiproliferative effects even in the presence of 1 nmol/L R1881
- IC50 (VCaP cells; Homo sapiens, VCaP, 96 h, read-out: IC50 (inhibition of VCaP cell proliferation)): 20 nM
- TGI (VCaP xenografts; 1 mg/kg oral): 101%
- TGI (VCaP xenografts; 3 mg/kg oral): 109%
- reduction of circulating PSA levels (PSA [4]): 93%
- rat prostate involution vs enzalutamide 100 mg/kg (rat prostate tissue): significantly higher activity than enzalutamide
- body weights ([5]; castrated VCaP xenograft model): Body weights were maintained
- body weights [5, 12]: Body weights were maintained
- volume of abiraterone-resistant tumors [6]: reduced the volume of these abiraterone-resistant tumors
- reduction in AR target gene TMPRSS–ERG in tumors (TMPRSS–ERG; 3 or 10 mg/kg bavdegalutamide): Concomitant reductions

SMILES: CNC(=O)c1ccc(N2C(=S)N(c3ccc(C#N)c(C(F)(F)F)c3)C(=O)C2(C)C)cc1F [Enzalutamide, reference compound]
- antiproliferative effect with increasing R1881 (VCaP cells; charcoal-stripped serum): antiproliferative only at R1881 concentrations <0.1 nmol/L
- TGI [7]: TGI was not observed
- body weights ([5]; castrated VCaP xenograft model): Body weights were maintained
- body weights [5, 12]: Body weights were maintained
- effect on tumor growth [8]: little to no effect on tumor growth
- effect on tumor growth [9]: without affecting tumor growth
- reduction of PSA levels (PSA [10]): approximately 50%
- reduction in AR target gene TMPRSS–ERG in tumors (TMPRSS–ERG; 20 mg/kg enzalutamide): this effect did not occur

SMILES: C[C@]1(O)CC[C@H]2[C@@H]3CCC4=CC(=O)CCC4=C3C=C[C@@]21C [R1881, reference compound]
- effect of R1881 alone on proliferation (VCaP cells; VCaP cells, charcoal-stripped serum): increased the proliferation of VCaP cells
